Results reported in article PMC10107299, “Neutralizing the Impact of the Virulence Factor LecA from Pseudomonas aeruginosa on Human Cells with New Glycomimetic Inhibitors” (Angewandte Chemie (International Ed. in English), 2023).
In brackets after ≈: the same amount, converted by molar mass. Several values for one entry are separate records, joined by “and”; a condition that tells them apart may be missing. Equal values may be shown once.

How the values were obtained:
[1] = Kinetic solubility in TBS/Ca2+ buffer (HPLC-MS); type: physicochemical; conditions: aqueous buffer, kinetic from dmso stock; TBS/Ca2+ buffer pH 7.4, 1 % DMSO, N≥3; read-out: Solubility S (kinetic)
Description: Next, we quantified the solubility of at least one representative of each new class and of one parent bisacylhydrazone in aqueous media (Table 1). […]
TBS/Ca2+ buffer (20 mM Tris, 137 mM NaCl, 2.6 mM KCl at pH 7.4 supplemented with 1 mM […]
(§1) CaCl2) in presence of 25% DMSO. […]
Kinetic solubility was determined on the analytical HPLC-MS using Compass QuantAnalysis quantification software (Bruker). Samples were prepared from DMSO stock solutions by dilution with TBS/Ca2+ buffer to 100 µM with 1% DMSO present. Samples were incubated on a shaker for 1 h at r.t., centrifuged (21380 g, 20 min), supernatants were diluted with DMSO (1:3), analyzed by HPLC-MS and fitted to the individual calibration curves.
Every experiment was repeated independently at least three times. […]

[2] = target: T1, LecA (Pseudomonas aeruginosa, UniProt Q05097); assay: Isothermal titration microcalorimetry (ITC) with LecA; type: binding; conditions: for -TΔS (supplement) / ΔS: ITC average ± s.d.; for Relative potency r.p. (ITC): compared to respective monovalent compound in each series; for ΔG, individual titration / ΔH, individual titration: LecA 35-182 µM, ligand 100 µM-1.5 mM as headed
T1 construct: made in house
T1 sequence (Q05097 whole entry): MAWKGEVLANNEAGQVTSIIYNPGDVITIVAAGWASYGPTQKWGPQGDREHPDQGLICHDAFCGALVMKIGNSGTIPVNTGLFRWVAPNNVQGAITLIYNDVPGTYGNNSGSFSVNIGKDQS
Source text: Due to the high solubility of the propanamides in the pyridine series and the sulfonated ligand L2, we determined binding thermodynamics with LecA using isothermal titration microcalorimetry (ITC, Figure 3, Figures S5–S9). […] In both cases, the enthalpy of binding increased approximately twofold (I2: ΔH=−23.9±1.2 kcal mol^−1, L2: ΔH=−19.5±1.3 kcal mol^−1) compared to their monovalent analogues (G2: ΔH=−11.0±0.2 kcal mol^−1, K2: ΔH=−10.3±0.1 kcal mol^−1), while the binding entropy was increased approximately threefold (G2: −TΔS=3.8±0.2 kcal mol^−1 vs. I2: −TΔS=13.7±1.3 kcal mol^−1, K2: −TΔS=3.2±0.2 kcal mol^−1 vs. L2: −TΔS=9.4±1.3 kcal mol^−1).
Figure 3 Direct binding of selected ligands to LecA by ITC (N=3). Titration of LecA (50 μM) with divalent sulfonated ligand L2 (250 μM) is depicted. Relative potencies (r.p.) were calculated compared to respective monovalent compound in each series and […]. TEXT PRINTED IN THE PICTURE: G2: ΔG [kcal/mol]: -7.2 ± 0.1; ΔH [kcal/mol]: -11.0 ± 0.2; -TΔS [kcal/mol]: 3.8 ± 0.2; N: 1.07 ± 0.06; Kd [nM]: 5 270 ± 30; r.p.: 1 | I2: ΔG [kcal/mol]: -10.2 ± 0.2; ΔH [kcal/mol]: -23.9 ± 1.2; -TΔS [kcal/mol]: 13.7 ± 1.3; N: 0.43 ± 0.01; Kd [nM]: 35.1 ± 12.5; r.p.: 150 | J2: ΔG [kcal/mol]: -9.7 ± 0.2; ΔH [kcal/mol]: -13.5 ± 0.4; -TΔS [kcal/mol]: 3.8 ± 0.5; N: 0.61 ± 0.06; Kd [nM]: 79.5 ± 32.8; r.p.: 66 | K2: ΔG [kcal/mol]: -7.1 ± 0.1; ΔH [kcal/mol]: -10.3 ± 0.1; -TΔS [kcal/mol]: 3.2 ± 0.2; N: 1.08 ± 0.13; Kd [nM]: 6 230 ± 440; r.p.: 1 | L2: ΔG [kcal/mol]: -10.1 ± 0.1; ΔH [kcal/mol]: -19.5 ± 1.3; -TΔS [kcal/mol]: 9.4 ± 1.3; N: 0.52 ± 0.06; Kd [nM]: 39.9 ± 3.6; r.p.: 156 […]
Expression and purification of LecA as well as competitive binding by fluorescence polarization was performed as described by Joachim et al..[9] The assay was performed in TBS/Ca2+ buffer (20 mM Tris, 137 mM NaCl, 2.6 mM KCl at pH 7.4 supplemented with 1 mM […]
as §1
Isothermal titration calorimetry was performed on an iTC200 (Malvern Panalytical) and the data were analyzed using Microcal Origin software (Malvern Panalytical). LecA (50 - 180 […]
K2 and L2 and TBS/Ca2+ buffer supplemented with 5% DMSO for I2 and J2. Steep titration slopes achieved with the divalent ligands were the result of high amount of protein present and the high binding affinity of the ligand (high ‘value of c’).[10] However, LecA protein […]
low heat released upon binding. […]

[3] = target: T1, LecA; assay: Direct binding to immobilized LecA by surface plasmon resonance (SPR); conditions: for kon: SPR single-cycle kinetics, 25 °C, N=3 (I1 N=1); for Relative potency r.p. (SPR): compared to respective monovalent compound in each series
Description: K d values were oscillating with the number of methylene units present in the linker, presumably linked to the zig‐zag geometry of the hydrocarbon chain.
Expression and purification of LecA as well as competitive binding by fluorescence polarization was performed as described by Joachim et al..[9] […]
Surface plasmon resonance experiments were performed on a BIACORE X100 instrument (GE Healthcare) at 25 °C as described by Zahorska et. al..[8] Averages and standard deviations were calculated from three independent experiments. […]
Figure S3: SPR of divalent LecA ligands from benzene series. Sensorgrams obtained from SPR single-cycle kinetics experiments. Five different concentrations of each compound (0, 10, 50, 100, 200 nM) were sequentially injected to obtain the experimental sensorgrams (blue lines), which were then fitted by a 1:1 model (orange) on BIACORE evaluation software. […]
Figure S4: SPR of divalent LecA ligands from pyridine and sulfonated series. Sensorgrams obtained from SPR single-cycle kinetics experiments. Five different concentrations of each compound (0, 10, 50, 100, 200 nM) were sequentially injected to obtain the experimental sensorgrams (blue lines), which were then fitted by a 1:1 model (orange) on BIACORE evaluation software.
(also on this page, place not known: Response (RU)0 Response (RU)0 Response (RU) Response (RU) Response (RU) Response (RU) 030060090012001500) […]

[4] = target: T1, LecA; assay: Competitive binding assay based on fluorescence polarization
Description: All synthesized galactosides were then evaluated for LecA inhibition using a competitive binding assay based on fluorescence polarization (Figure S1).[24]
Expression and purification of LecA as well as competitive binding by fluorescence polarization was performed as described by Joachim et al..[9] The assay was performed in TBS/Ca2+ buffer (20 mM Tris, 137 mM NaCl, 2.6 mM KCl at pH 7.4 supplemented with 1 mM CaCl2) in presence of 25% DMSO. Averages and standard deviations were calculated from at least three independent experiments. […]
RR OR In h i b i to r [µ M ]
R R In h i b i to r [µ M ] […]
R In h i b i to r [µ M ] 30 L2
30 F2 40 K2 In h i b i to r [µ M ] […]
In h i b i to r [µ M ] In h i b i to r [µ M ]
Figure S1: Evaluation of amide divalent LecA ligands in a competitive binding assay based on fluorescence […]
representative experiment is shown or each series. Averages and standard deviations from at least three independent titrations of triplicates each.
[…] Fluorescence polarization [mP] -1 0 1 2 3 0 1001010 Me-α-Gal pNO2-Ph-β-Gal 1000 Inhibitor [µM] Fluorescence polarization [mP])

[5] = ITC average, 25 °C, TBS/Ca2+ buffer (5% DMSO for I2 and J2), N=3
[6] = Kd (ITC), ITC average, 25 °C, TBS/Ca2+ buffer (5% DMSO for I2 and J2), N=3
[7] = Kd, individual titration, single ITC titrations, three per ligand
[8] = single ITC titrations, three per ligand

O=C(CCc1ccc(O[C@@H]2O[C@H](CO)[C@H](O)[C@H](O)[C@H]2O)cc1)Nc1ccc(OCCCOc2ccc(NC(=O)CCc3ccc(O[C@@H]4O[C@H](CO)[C@H](O)[C@H](O)[C@H]4O)cc3)cn2)nc1 [Compound I2]
solubility kinetic at 1 h [1]: 63.3 ± 4.2 µM (≈ 55.8 µg/mL) | -TΔS (supplement) ([2]; 25 °C): 13.7 ± 1.3 kcal/mol | ΔS ([2]; 25 °C): -45.9 ± 4.5 cal/mol/K | N (stoichiometry) ([2]; ITC average, 25 °C, N=3): 0.43 ± 0.01 | -TΔS [2, 5]: 13.7 ± 1.3 kcal/mol | ΔG [2, 5]: -10.2 ± 0.2 kcal/mol | ΔH [2, 5]: -23.9 ± 1.2 kcal/mol | Kd [2, 6]: 35.1 ± 12.5 nM | Kd [2, 7]: 48.3 nM and 38.8 nM and 18.3 nM | Relative potency r.p. (ITC) [2]: 150 | N, individual titration [2, 8]: 0.44 (2×) and 0.43 | ΔS, individual titration [2, 8]: -51.6 cal/mol/K and -40.6 cal/mol/K and -45.6 cal/mol/K | ΔG, individual titration [2, 8]: -10.0 kcal/mol and -10.1 kcal/mol and -10.6 kcal/mol | ΔH, individual titration [2, 8]: -23.6 kcal/mol and -25.5 kcal/mol and -22.7 kcal/mol | Kd [3]: 30.8 ± 1.5 nM | koff [3]: 0.00809 ± 0.00124 s⁻¹ | kon [3]: 262 ± 28 x10^3/Ms | Relative potency r.p. (SPR) [3]: 97 | IC50 [4]: 3200 ± 1300 nM

O=C(CCc1ccc(O[C@@H]2O[C@H](CO)[C@H](O)[C@H](O)[C@H]2O)cc1)Nc1ccc(OCCCCOc2ccc(NC(=O)CCc3ccc(O[C@@H]4O[C@H](CO)[C@H](O)[C@H](O)[C@H]4O)cc3)cn2)nc1 [Compound J2]
solubility kinetic at 1 h [1]: 13.7 ± 1.7 µM (≈ 12.3 µg/mL) | -TΔS (supplement) ([2]; 25 °C): 3.8 ± 0.5 kcal/mol | ΔS ([2]; 25 °C): -12.6 ± 1.8 cal/mol/K | N (stoichiometry) ([2]; ITC average, 25 °C, N=3): 0.61 ± 0.06 | -TΔS [2, 5]: 3.8 ± 0.5 kcal/mol | ΔG [2, 5]: -9.7 ± 0.2 kcal/mol | ΔH [2, 5]: -13.5 ± 0.4 kcal/mol | Kd [2, 6]: 79.5 ± 32.8 nM | Kd [2, 7]: 59.9 nM and 52.9 nM and 126 nM | Relative potency r.p. (ITC) [2]: 66 | N, individual titration [2, 8]: 0.53 and 0.62 and 0.69 | ΔS, individual titration [2, 8]: -10.1 cal/mol/K and -13.8 cal/mol/K and -14.0 cal/mol/K | ΔG, individual titration [2, 8]: -9.9 kcal/mol (2×) and -9.4 kcal/mol | ΔH, individual titration [2, 8]: -14.0 kcal/mol and -12.9 kcal/mol and -13.5 kcal/mol | Kd [3]: 25.1 ± 1.9 nM | koff [3]: 0.0068 ± 0.00265 s⁻¹ | kon [3]: 267 ± 84 x10^3/Ms | Relative potency r.p. (SPR) [3]: 118 | IC50 [4]: 3400 ± 1300 nM
